The text below walks through data of article PMC8097023, “Structures of a non-ribosomal peptide synthetase condensation domain suggest the basis of substrate selectivity” (Nature Communications, 2021).

For experiment [1], the target named is T1, PCP2-C3 didomain of fuscachelin NRPS FscG (Thermobifida fusca, UniProt Q47NR9).
T1 construct: gene Tfu_1867; PCP2-C3 didomain fragment; C3 = residues 2558-2999, PPant site S2514; His-SUMO tag (pOPIN-S) cleaved; made in E. coli BL21(DE3) entD-; monomeric, two copies in the asymmetric unit, PCP2 at the acceptor site of the other chain
T1 sequence (Q47NR9 2481-3008): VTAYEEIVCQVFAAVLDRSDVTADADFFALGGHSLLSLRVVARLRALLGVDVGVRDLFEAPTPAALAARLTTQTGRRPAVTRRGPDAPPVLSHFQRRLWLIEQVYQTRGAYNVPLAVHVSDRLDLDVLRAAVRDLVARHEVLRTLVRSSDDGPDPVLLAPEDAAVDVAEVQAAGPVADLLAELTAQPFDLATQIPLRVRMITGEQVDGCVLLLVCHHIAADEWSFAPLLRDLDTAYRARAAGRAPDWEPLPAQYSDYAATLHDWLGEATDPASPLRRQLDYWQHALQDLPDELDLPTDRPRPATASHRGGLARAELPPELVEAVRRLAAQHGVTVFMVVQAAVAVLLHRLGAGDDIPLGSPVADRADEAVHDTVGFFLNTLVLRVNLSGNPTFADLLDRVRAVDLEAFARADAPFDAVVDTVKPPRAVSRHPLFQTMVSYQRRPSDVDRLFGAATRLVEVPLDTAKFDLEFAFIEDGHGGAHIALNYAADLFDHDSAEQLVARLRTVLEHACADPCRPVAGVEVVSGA
Description: X-ray crystal structure, […] Å. The class given is binding. Particulars: covalent; PPant on S2514 of PCP2; arm at C3 acceptor entrance, kept out of the active site by R2577.

Experiment [2] has as its target T2, PCP2-C3 didomain of fuscachelin NRPS FscG (Thermobifida fusca, UniProt Q47NR9, R2577G).
T2 construct: gene Tfu_1867; PCP2-C3 didomain fragment; C3 = residues 2558-2999, PPant site S2514; His-SUMO tag (pOPIN-S) cleaved; made in E. coli BL21(DE3) entD-; monomeric, two copies in the asymmetric unit, PCP2 at the acceptor site of the other chain
Put plainly: X-ray crystal structure, […] Å. The class given is binding. Particulars: covalent; PPant on S2514 of PCP2, fully extended through the acceptor channel into the C3 active site.

T2 sequence (Q47NR9 entry or part of it R2577G): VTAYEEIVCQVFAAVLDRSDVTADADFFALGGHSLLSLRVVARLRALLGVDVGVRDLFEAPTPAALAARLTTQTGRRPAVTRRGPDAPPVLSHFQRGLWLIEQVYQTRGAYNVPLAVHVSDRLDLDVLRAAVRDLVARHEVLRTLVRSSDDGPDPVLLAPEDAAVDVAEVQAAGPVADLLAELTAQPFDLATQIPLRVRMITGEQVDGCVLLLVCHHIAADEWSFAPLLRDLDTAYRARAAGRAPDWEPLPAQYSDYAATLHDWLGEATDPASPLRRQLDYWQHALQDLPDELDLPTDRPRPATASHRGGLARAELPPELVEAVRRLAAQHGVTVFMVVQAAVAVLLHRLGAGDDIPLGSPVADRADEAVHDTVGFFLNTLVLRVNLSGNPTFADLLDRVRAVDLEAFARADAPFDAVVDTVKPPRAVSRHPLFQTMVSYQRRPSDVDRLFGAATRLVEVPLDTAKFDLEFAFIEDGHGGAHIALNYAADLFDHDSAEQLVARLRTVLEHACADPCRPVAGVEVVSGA

Regarding `CC(C)(COP(=O)(O)O)[C@@H](O)C(=O)NCCC(=O)NCCS` [PPant], in experiment [1], the “X-ray crystal structure, 2.2 Å” value is “Having confirmed the presence of a PPant arm, we modeled this into the electron density”. Besides, the “X-ray crystal structure, 2 Å” value in experiment [2] was “PPant moiety, which now fully extends thought the acceptor channel into the active site”.
